Results reported in patent US6737383B1, “Herbicidal oxadiazolidines” (priority 1999, dated 2004).

What was measured:
cocklebur = test: Test B pre/postemergence cocklebur; type: in vivo, Xanthium strumarium
In short: (§1)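 Response is a visual 0-to-10 score relative to untreated plants, where 0 means no effect and 10 means complete control, taken twelve to sixteen days after application. Treatments went onto soil at planting and onto foliage of 1- to 4-leaf plants, using a surfactant-containing non-phytotoxic solvent.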

crabgrass = test: Test B pre/postemergence crabgrass; type: in vivo, Digitaria sanguinalis
In short: as §1

surinam grass = test: Test B pre/postemergence surinam grass; type: in vivo, Brachiaria decumbens
In short: as §1

corn = test: Test B pre/postemergence corn; type: in vivo, Zea mays
In short: as §1

[1] = Postemergence, Rate 62 g/ha, scale 0 to 10, 0 is no effect, 10 is complete control
[2] = Postemergence, Rate 250 g/ha, scale 0 to 10, 0 no effect, 10 complete control
[3] = Preemergence, Rate 62 g/ha, scale 0 to 10 (0 no effect, 10 complete control)
[4] = Preemergence, Rate 125 g/ha, scale 0 to 10 (0 no effect, 10 complete control)
[5] = Preemergence, Rate 250 g/ha, scale of 0 to 10 where 0 is no effect and 10 is complete control
[6] = Preemergence, Rate 500 g/ha, scale 0 (no effect) to 10 (complete control)
[7] = Rate 125 g/ha, Postemergence, scale 0 to 10, 0 no effect, 10 complete control
[8] = Rate 500 g/ha, Postemergence, scale 0 to 10, 0 no effect, 10 complete control
[9] = Postemergence, Rate 1000 g/ha, scale 0 to 10 (0 no effect, 10 complete control)
[10] = Rate 500 g/ha, Postemergence, 0 to 10 scale (0 no effect, 10 complete control)
[11] = Rate 1000 g/ha, Preemergence, scale 0 to 10 (0 no effect, 10 complete control)
[12] = Postemergence, Rate 125 g/ha, scale of 0 to 10 where 0 is no effect and 10 is complete control
[13] = Preemergence, Rate 125 g/ha, 0 is no effect, 10 is complete control
[14] = Preemergence, Rate 250 g/ha, scale 0 to 10, 0 is no effect, 10 is complete control
[15] = Preemergence, Rate 500 g/ha, scale 0 to 10 (0 no effect, 10 complete control)
[16] = Rate 62 g/ha, Postemergence, scale of 0 to 10 where 0 is no effect and 10 is complete control
[17] = Rate 250 g/ha, Postemergence, scale 0 to 10, 0 is no effect, 10 is complete control
[18] = Rate 500 g/ha, Postemergence, scale 0 to 10
[19] = Preemergence, Rate 31 g/ha, visual rating, scale 0 to 10 (0 no effect, 10 complete control)
[20] = Preemergence, Rate 62 g/ha, scale 0 to 10, 0 is no effect, 10 is complete control
[21] = Rate 31 g/ha, Postemergence, scale 0 to 10

CC(C)N(C(=O)n1oc(=O)n(Cc2ccccc2)c1=O)c1ccc(F)cc1F [Compound 79]
Cocklebur plant response rating (cocklebur; [1]): 0
Cocklebur plant response rating (cocklebur; [2]): 2
Cocklebur plant response rating (cocklebur; [3]): 0
Plant response rating, Cocklebur (cocklebur; [4]): 0
Plant response rating, Cocklebur (cocklebur; [5]): 0
Cocklebur plant response rating (cocklebur; [6]): 0
Cocklebur plant response rating (cocklebur; [7]): 0
Cocklebur plant response rating (cocklebur; [8]): 2
Crabgrass plant response rating (crabgrass; [1]): 3
Crabgrass plant response rating (crabgrass; [2]): 4
Crabgrass plant response rating (crabgrass; [3]): 2
Plant response rating, Crabgrass (crabgrass; [4]): 7
Plant response rating, Crabgrass (crabgrass; [5]): 9
Crabgrass plant response rating (crabgrass; [6]): 10
Crabgrass plant response rating (crabgrass; [7]): 4
Crabgrass plant response rating (crabgrass; [8]): 8
B. signalgrass plant response rating (surinam grass; [1]): 0
B. signalgrass plant response rating (surinam grass; [2]): 0
B. signalgrass plant response rating (surinam grass; [3]): 2
Plant response rating, B. signalgrass (surinam grass; [4]): 0
Plant response rating, B. signalgrass (surinam grass; [5]): 3
B. signalgrass plant response rating (surinam grass; [6]): 5
B. signalgrass plant response rating (surinam grass; [7]): 0
B. signalgrass plant response rating (surinam grass; Rate 500 g/ha, Postemergence, scale of 0 to 10 where 0 is no effect and 10 is complete control): 0
Corn plant response rating (corn; [1]): 0
Corn plant response rating (corn; [2]): 0
Corn plant response rating (corn; [3]): 0
Plant response rating, Corn (corn; [4]): 0
Plant response rating, Corn (corn; [5]): 0
Corn plant response rating (corn; [6]): 0
Corn plant response rating (corn; [7]): 0
Corn plant response rating (corn; [8]): 0

CCN(CC)C(=O)n1oc(=O)n(-c2c(C)cccc2C)c1=O [Compound 2]
Cocklebur plant response rating (cocklebur; [2]): 0
Cocklebur plant response rating (cocklebur; [9]): 0
Plant response rating, Cocklebur (cocklebur; [4]): 0
Plant response rating, Cocklebur (cocklebur; [5]): 0
Cocklebur plant response rating (cocklebur; [6]): 0
Cocklebur plant response rating (cocklebur; [7]): 0
Cocklebur plant response rating (cocklebur; [10]): 0
Crabgrass plant response rating (crabgrass; [2]): 0
Crabgrass plant response rating (crabgrass; [9]): 4
Plant response rating, Crabgrass (crabgrass; [4]): 0
Plant response rating, Crabgrass (crabgrass; [5]): 0
Crabgrass plant response rating (crabgrass; [6]): 0
Crabgrass plant response rating (crabgrass; [7]): 0
Crabgrass plant response rating (crabgrass; [10]): 0
Plant response rating, Crabgrass (crabgrass; [11]): 6
B. signalgrass plant response rating (surinam grass; [2]): 0
B. signalgrass plant response rating (surinam grass; [9]): 2
Plant response rating, B. signalgrass (surinam grass; [4]): 0
Plant response rating, B. signalgrass (surinam grass; [5]): 0
B. signalgrass plant response rating (surinam grass; [6]): 0
B. signalgrass plant response rating (surinam grass; [7]): 0
B. signalgrass plant response rating (surinam grass; [10]): 0
Plant response rating, B. signalgrass (surinam grass; [11]): 6
Corn plant response rating (corn; [2]): 3
Corn plant response rating (corn; [9]): 8
Plant response rating, Corn (corn; [4]): 4
Plant response rating, Corn (corn; [5]): 6
Corn plant response rating (corn; [6]): 7
Corn plant response rating (corn; [7]): 0
Corn plant response rating (corn; [10]): 6
Plant response rating, Corn (corn; [11]): 8

C=CCn1c(=O)on(C(=O)N(c2ccc(F)cc2)C2CC2)c1=O [Compound 154]
Cocklebur plant response rating (cocklebur; [12]): 0
Cocklebur plant response rating (cocklebur; [3]): 0
Cocklebur plant response rating (0 to 10 scale) (cocklebur; [13]): 0
Cocklebur plant response rating (cocklebur; [14]): 0
Cocklebur plant response rating (cocklebur; [15]): 0
Cocklebur plant response rating (cocklebur; [16]): 0
Plant response rating, Cocklebur (cocklebur; [17]): 0
Cocklebur plant response rating (cocklebur; [18]): 2
Crabgrass plant response rating (crabgrass; [12]): 0
Crabgrass plant response rating (crabgrass; [3]): 0
Crabgrass plant response rating (0 to 10 scale) (crabgrass; [13]): 0
Crabgrass plant response rating (crabgrass; [14]): 0
Crabgrass plant response rating (crabgrass; [15]): 0
Crabgrass plant response rating (crabgrass; [16]): 0
Plant response rating, Crabgrass (crabgrass; [17]): 1
Crabgrass plant response rating (crabgrass; [18]): 5
B. signalgrass plant response rating (surinam grass; [12]): 0
B. signalgrass plant response rating (surinam grass; [3]): 0
B. signalgrass plant response rating (0 to 10 scale) (surinam grass; [13]): 0
B. signalgrass plant response rating (surinam grass; [14]): 0
B. signalgrass plant response rating (surinam grass; [15]): 4
B. signalgrass plant response rating (surinam grass; [16]): 0
Plant response rating, B. signalgrass (surinam grass; [17]): 0
B. signalgrass plant response rating (surinam grass; [8]): 2
Corn plant response rating (corn; [12]): 0
Corn plant response rating (corn; [3]): 0
Corn plant response rating (0 to 10 scale) (corn; [13]): 0
Corn plant response rating (corn; [14]): 0
Corn plant response rating (corn; [15]): 0
Corn plant response rating (corn; [16]): 0
Plant response rating, Corn (corn; [17]): 0
Corn plant response rating (corn; [18]): 0

COc1ccccc1-n1c(=O)on(C(=O)N(c2ccc(F)cc2F)C(C)C)c1=O [Compound 31]
Cocklebur plant response rating (cocklebur; [1]): 0
Cocklebur plant response rating (cocklebur; [2]): 1
Cocklebur plant response rating (cocklebur; [19]): 0
Plant response rating, Cocklebur (cocklebur; [20]): 0
Plant response rating, Cocklebur (cocklebur; [4]): 0
Plant response rating, Cocklebur (cocklebur; [5]): 0
Cocklebur plant response rating (cocklebur; [21]): 0
Cocklebur plant response rating (cocklebur; [7]): 0
Crabgrass plant response rating (crabgrass; [1]): 0
Crabgrass plant response rating (crabgrass; [2]): 9
Crabgrass plant response rating (crabgrass; [19]): 2
Plant response rating, Crabgrass (crabgrass; [20]): 9
Plant response rating, Crabgrass (crabgrass; [4]): 9
Plant response rating, Crabgrass (crabgrass; [5]): 9
Crabgrass plant response rating (crabgrass; [21]): 0
Crabgrass plant response rating (crabgrass; [7]): 2
B. signalgrass plant response rating (surinam grass; [1]): 0
B. signalgrass plant response rating (surinam grass; [2]): 0
B. signalgrass plant response rating (surinam grass; [19]): 0
Plant response rating, B. signalgrass (surinam grass; [20]): 0
Plant response rating, B. signalgrass (surinam grass; [4]): 0
Plant response rating, B. signalgrass (surinam grass; [5]): 6
B. signalgrass plant response rating (surinam grass; [21]): 0
B. signalgrass plant response rating (surinam grass; [7]): 0
Corn plant response rating (corn; [1]): 0
Corn plant response rating (corn; [2]): 0
Corn plant response rating (corn; [19]): 0
Plant response rating, Corn (corn; [20]): 0
Plant response rating, Corn (corn; [4]): 0
Plant response rating, Corn (corn; [5]): 0
Corn plant response rating (corn; [21]): 0
Corn plant response rating (corn; [7]): 0
